Earlier results, collected in US6747151B2, “Azo compounds for type I phototherapy” (Mallinckrodt, Inc., priority 2001, dated 2004).

What was measured:
[1] = tested on: tumors; conditions: after administration
[2] = tested on: melanoma cells; conditions: after administration

Row | Compound | uptake of porphyrins in tumors compared to normal tissues [1] | levels of melanin in melanoma cells compared to normal cells [2]
1 | NCC(=O)CCC(=O)O [delta-aminolevulinic acid] | two-fold | –
2 | dihydroxyindole-2-carboxylic acid | – | substantially enhanced
